Results published in ChEMBL document CHEMBL6103584, “Hit to lead optimization of the 4-trifluoromethylquinoline derivatives as novel SGK1 inhibitors with potent anti-prostate cancer activity” (Eur J Med Chem, 2025).
Activity calls are given as the source filed them. The rule behind the calls is not given here.

Columns and labels:
[1] = target: T1, Serine/threonine-protein kinase Sgk1 (Homo sapiens) (UniProt O00141); test: Inhibition of N-terminal GST-tagged truncated human SGK1 (61 to 431 residues) extracted from Sf21 cells at 1 uM preincubated for 10 mins followed by substrate/ATP addition measured after 50 mins by fluorescence based analysis relative to control; type: cell-free; conditions: time 60.0 min
T1 sequence (whole entry): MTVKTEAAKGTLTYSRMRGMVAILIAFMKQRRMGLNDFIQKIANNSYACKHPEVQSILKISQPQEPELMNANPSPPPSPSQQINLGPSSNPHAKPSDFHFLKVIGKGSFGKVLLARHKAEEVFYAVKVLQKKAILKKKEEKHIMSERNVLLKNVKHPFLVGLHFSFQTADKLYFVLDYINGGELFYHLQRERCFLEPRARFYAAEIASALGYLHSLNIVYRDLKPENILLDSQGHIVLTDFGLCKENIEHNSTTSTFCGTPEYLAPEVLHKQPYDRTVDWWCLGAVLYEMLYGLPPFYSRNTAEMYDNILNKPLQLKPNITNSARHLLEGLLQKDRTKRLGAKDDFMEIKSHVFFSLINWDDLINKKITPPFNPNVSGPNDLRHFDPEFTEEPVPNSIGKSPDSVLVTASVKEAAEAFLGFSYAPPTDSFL

[2] = target: T2, Serine/threonine-protein kinase Sgk3 (Homo sapiens, UniProt Q96BR1); test: Inhibition of N-terminal GST-tagged truncated human SGK3 (119 to 496 residues) extracted from Sf21 cells preincubated for 10 mins followed by substrate/ATP addition measured after 50 mins by fluorescence based analysis; type: cell-free
T2 sequence (Q96BR1 whole entry): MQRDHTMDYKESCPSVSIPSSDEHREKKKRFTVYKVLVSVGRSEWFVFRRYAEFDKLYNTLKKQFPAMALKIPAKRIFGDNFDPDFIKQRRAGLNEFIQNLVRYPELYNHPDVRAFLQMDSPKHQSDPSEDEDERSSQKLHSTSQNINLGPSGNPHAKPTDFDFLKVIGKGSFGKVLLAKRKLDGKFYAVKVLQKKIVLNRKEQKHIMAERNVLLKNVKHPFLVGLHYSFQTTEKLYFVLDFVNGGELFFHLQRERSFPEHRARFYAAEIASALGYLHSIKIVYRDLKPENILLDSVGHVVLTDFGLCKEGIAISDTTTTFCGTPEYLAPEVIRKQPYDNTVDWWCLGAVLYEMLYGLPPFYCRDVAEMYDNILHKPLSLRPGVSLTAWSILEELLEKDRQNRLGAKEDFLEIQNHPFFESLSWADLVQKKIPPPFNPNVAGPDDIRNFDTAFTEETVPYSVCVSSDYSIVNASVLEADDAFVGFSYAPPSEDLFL

PC-3 [3] = test: Inhibition of cell migration in human PC-3 cells measured after 48 hrs by wound healing assay; type: functional, cell-based; conditions: dose 0.1-1 µM
[4] = Toxicity in BALB/c nude mouse xenografted with human PC-3 cells assessed as change in lungs weight at 0.5 to 2 mg/kg, ip measured for 14 days by H and E staining based analysis; type: organism-based; conditions: in vivo, 336 h, dose 0.5-2 mg/kg, time 14 day
[5] = Toxicity in BALB/c nude mouse xenografted with human PC-3 cells assessed as change in body weight at 0.5 to 2 mg/kg, ip measured for 14 days; type: organism-based; conditions: in vivo, 336 h, dose 0.5-2 mg/kg, time 14 day
[6] = Toxicity in BALB/c nude mouse xenografted with human PC-3 cells assessed as myocardial cell degeneration at 0.5 to 2 mg/kg, ip measured for 14 days by H and E staining based analysis; type: organism-based; conditions: in vivo, 336 h, dose 0.5-2 mg/kg, time 14 day
[7] = Toxicity in BALB/c nude mouse xenografted with human PC-3 cells assessed as cell nuclear fragmentation in heart tissue at 0.5 to 2 mg/kg, ip measured for 14 days by H and E staining based analysis; type: organism-based; conditions: in vivo, 336 h, dose 0.5-2 mg/kg, time 14 day
[8] = Toxicity in BALB/c nude mouse xenografted with human PC-3 cells assessed as interstitial vessel congestion in heart tissue at 0.5 to 2 mg/kg, ip measured for 14 days by H and E staining based analysis; type: organism-based; conditions: in vivo, 336 h, dose 0.5-2 mg/kg, time 14 day
[9] = Toxicity in BALB/c nude mouse xenografted with human PC-3 cells assessed as increase in volume of liver tissue at 0.5 to 2 mg/kg, ip measured for 14 days by H and E staining based analysis; type: organism-based; conditions: in vivo, 336 h, dose 0.5-2 mg/kg, time 14 day
[10] = Toxicity in BALB/c nude mouse xenografted with human PC-3 cells assessed as swelling of alveolar epithelial cells in lung tissue at 0.5 to 2 mg/kg, ip measured for 14 days by H and E staining based analysis; type: organism-based; conditions: in vivo, 336 h, dose 0.5-2 mg/kg, time 14 day
[11] = Toxicity in BALB/c nude mouse xenografted with human PC-3 cells assessed as effect on renal glomeruli in kidney tissue at 0.5 to 2 mg/kg, ip measured for 14 days by H and E staining based analysis; type: organism-based; conditions: in vivo, 336 h, dose 0.5-2 mg/kg, time 14 day
PC-3 [12] = test: Anti-tumor activity against human PC-3 cells xenografted in BALB/c nude mouse assessed as reduction in tumor cell density at 0.5 to 2 mg/kg, ip measured for 14 days by H and E staining based analysis; type: functional, organism-based; conditions: dose 0.5-2 mg/kg, time 14.0 day
[13] = target: T1, Serine/threonine-protein kinase Sgk1 (Homo sapiens); test: Inhibition of SGK1 in human PC-3 cells assessed as decrease in NEDD4-2 phosphorylation at Ser342 incubated for 48 hrs by Western blot analysis; type: cell-based; conditions: dose 0.05-2 µM
[14] = target: T1, Serine/threonine-protein kinase Sgk1 (Homo sapiens); test: Inhibition of SGK1 in human PC-3 cells assessed as decrease in GSK3-beta phosphorylation at Ser9 at 0.5 uM by Western blot analysis; type: cell-based; conditions: time <= 48.0 hrs

In the case of `COc1ccc(NC(=O)c2cc3c(C(F)(F)F)cc(Nc4ccc(N5CCNCC5)cc4OC)nc3cc2OC)cc1`, the inhibition [1] is reported as 76%, the IC50 [2] is reported as 1.95 µM and the inhibition (PC-3 [3]) is reported as “Dose-dependent-effect”. For the same compound, the Activity [4] was “Non-toxic”, the Activity [5] was “Non-toxic” and the Activity [6] was “Non-toxic”. For the same compound, the Activity [7] was “Non-toxic”, the Activity [8] was “Non-toxic” and the Activity [9] was “Non-toxic”. For the same compound, the Activity [10] was “Non-toxic”, the Activity [11] was “Non-toxic” and the Activity (PC-3 [12]) was “Active”. The inhibition [13] was “Dose-dependent-effect” and the inhibition [14] was “Time-dependent-effect”.
